Laboratory results: the CheMixHub ionic liquid set

Assay: xn = mol fraction of the nth substance listed
Conditions: 100 kPa

CCCCCCCCCCCCCCCC[N+](C)(C)C.[Br-] + NCC(=O)NCC(=O)O + O
Conditions | electrical conductivity [S/m]
293.15 K, x1 = 3.61e-06, x2 = 0.0001802 | 0.0032
293.15 K, x1 = 5.41e-06, x2 = 0.0001802 | 0.0042
293.15 K, x1 = 7.22e-06, x2 = 0.0001802 | 0.0053
293.15 K, x1 = 9.02e-06, x2 = 0.0001802 | 0.006
293.15 K, x1 = 3.428e-05, x2 = 0.0001802 | 0.0097
293.15 K, x1 = 3.608e-05, x2 = 0.0001802 | 0.0099
298.15 K, x1 = 1.8e-06, x2 = 9.009e-05 | 0.0016
298.15 K, x1 = 3.61e-06, x2 = 9.009e-05 | 0.0027
298.15 K, x1 = 5.41e-06, x2 = 9.009e-05 | 0.0037
298.15 K, x1 = 5.41e-06, x2 = 0.0001802 | 0.0044
298.15 K, x1 = 7.21e-06, x2 = 9.009e-05 | 0.0048
298.15 K, x1 = 7.22e-06, x2 = 0.0001802 | 0.0054
298.15 K, x1 = 9.02e-06, x2 = 0.0001802 | 0.0062
298.15 K, x1 = 1.082e-05, x2 = 9.009e-05 | 0.0065
298.15 K, x1 = 1.082e-05, x2 = 0.0001802 | 0.0072
298.15 K, x1 = 1.262e-05, x2 = 1.802e-05 | 0.0046
298.15 K, x1 = 2.885e-05, x2 = 9.009e-05 | 0.0094
298.15 K, x1 = 3.067e-05, x2 = 0.0001802 | 0.0098
298.15 K, x1 = 3.245e-05, x2 = 9.009e-05 | 0.0099
303.15 K, x1 = 1.8e-06, x2 = 9.009e-05 | 0.0018
303.15 K, x1 = 3.61e-06, x2 = 9.009e-05 | 0.0029
303.15 K, x1 = 3.61e-06, x2 = 0.0001802 | 0.0036
303.15 K, x1 = 5.41e-06, x2 = 0.0001802 | 0.0046
303.15 K, x1 = 7.21e-06, x2 = 9.009e-05 | 0.005
303.15 K, x1 = 7.22e-06, x2 = 0.0001802 | 0.0055
303.15 K, x1 = 9.02e-06, x2 = 9.009e-05 | 0.006
303.15 K, x1 = 9.02e-06, x2 = 0.0001802 | 0.0064
303.15 K, x1 = 1.081e-05, x2 = 1.802e-05 | 0.0044
303.15 K, x1 = 1.082e-05, x2 = 9.009e-05 | 0.007
303.15 K, x1 = 1.082e-05, x2 = 0.0001802 | 0.0073
303.15 K, x1 = 1.262e-05, x2 = 1.802e-05 | 0.0051
303.15 K, x1 = 1.262e-05, x2 = 9.009e-05 | 0.0078
303.15 K, x1 = 1.263e-05, x2 = 0.0001802 | 0.0081
303.15 K, x1 = 1.622e-05, x2 = 1.802e-05 | 0.0061
303.15 K, x1 = 1.623e-05, x2 = 9.009e-05 | 0.0089
303.15 K, x1 = 1.624e-05, x2 = 0.0001802 | 0.009
303.15 K, x1 = 1.802e-05, x2 = 1.802e-05 | 0.0065
303.15 K, x1 = 1.803e-05, x2 = 9.009e-05 | 0.0092
303.15 K, x1 = 1.804e-05, x2 = 0.0001802 | 0.0098
303.15 K, x1 = 1.982e-05, x2 = 1.802e-05 | 0.007
303.15 K, x1 = 1.983e-05, x2 = 9.009e-05 | 0.0094
303.15 K, x1 = 1.984e-05, x2 = 0.0001802 | 0.0099
303.15 K, x1 = 2.164e-05, x2 = 9.009e-05 | 0.0095
303.15 K, x1 = 2.344e-05, x2 = 9.009e-05 | 0.0097
303.15 K, x1 = 2.524e-05, x2 = 9.009e-05 | 0.0099
303.15 K, x1 = 2.703e-05, x2 = 1.802e-05 | 0.0079
303.15 K, x1 = 2.883e-05, x2 = 1.802e-05 | 0.0081
303.15 K, x1 = 3.064e-05, x2 = 1.802e-05 | 0.0082
303.15 K, x1 = 3.244e-05, x2 = 1.802e-05 | 0.0084
303.15 K, x1 = 3.424e-05, x2 = 1.802e-05 | 0.0084
303.15 K, x1 = 3.604e-05, x2 = 1.802e-05 | 0.0086
308.15 K, x1 = 1.8e-06, x2 = 9.009e-05 | 0.0018
308.15 K, x1 = 1.8e-06, x2 = 0.0001802 | 0.003
308.15 K, x1 = 3.61e-06, x2 = 9.009e-05 | 0.003
308.15 K, x1 = 3.61e-06, x2 = 0.0001802 | 0.0039
308.15 K, x1 = 5.41e-06, x2 = 9.009e-05 | 0.0042
308.15 K, x1 = 5.41e-06, x2 = 0.0001802 | 0.0049
308.15 K, x1 = 7.21e-06, x2 = 9.009e-05 | 0.0052
308.15 K, x1 = 7.22e-06, x2 = 0.0001802 | 0.0057
308.15 K, x1 = 9.02e-06, x2 = 0.0001802 | 0.0066
308.15 K, x1 = 1.081e-05, x2 = 1.802e-05 | 0.0047
308.15 K, x1 = 1.262e-05, x2 = 1.802e-05 | 0.0055
308.15 K, x1 = 1.262e-05, x2 = 9.009e-05 | 0.0081
308.15 K, x1 = 1.442e-05, x2 = 1.802e-05 | 0.006
308.15 K, x1 = 1.622e-05, x2 = 1.802e-05 | 0.0063
308.15 K, x1 = 1.624e-05, x2 = 0.0001802 | 0.0099
308.15 K, x1 = 1.802e-05, x2 = 1.802e-05 | 0.0068
308.15 K, x1 = 1.803e-05, x2 = 9.009e-05 | 0.01
308.15 K, x1 = 2.163e-05, x2 = 1.802e-05 | 0.0076
308.15 K, x1 = 2.343e-05, x2 = 1.802e-05 | 0.0077
308.15 K, x1 = 2.523e-05, x2 = 1.802e-05 | 0.008
308.15 K, x1 = 2.703e-05, x2 = 1.802e-05 | 0.0082
308.15 K, x1 = 2.883e-05, x2 = 1.802e-05 | 0.0084
308.15 K, x1 = 3.064e-05, x2 = 1.802e-05 | 0.0084
308.15 K, x1 = 3.244e-05, x2 = 1.802e-05 | 0.0086
308.15 K, x1 = 3.424e-05, x2 = 1.802e-05 | 0.0087
308.15 K, x1 = 3.604e-05, x2 = 1.802e-05 | 0.009
313.15 K, x1 = 1.8e-06, x2 = 9.009e-05 | 0.0019
313.15 K, x1 = 1.8e-06, x2 = 0.0001802 | 0.0031
313.15 K, x1 = 3.61e-06, x2 = 9.009e-05 | 0.0033
313.15 K, x1 = 3.61e-06, x2 = 0.0001802 | 0.004
313.15 K, x1 = 5.41e-06, x2 = 9.009e-05 | 0.0045
313.15 K, x1 = 5.41e-06, x2 = 0.0001802 | 0.005
313.15 K, x1 = 7.21e-06, x2 = 1.802e-05 | 0.0039
313.15 K, x1 = 7.21e-06, x2 = 9.009e-05 | 0.0055
313.15 K, x1 = 7.22e-06, x2 = 0.0001802 | 0.0059
313.15 K, x1 = 9.02e-06, x2 = 9.009e-05 | 0.0064
313.15 K, x1 = 9.02e-06, x2 = 0.0001802 | 0.0067
313.15 K, x1 = 1.082e-05, x2 = 9.009e-05 | 0.0075
313.15 K, x1 = 1.082e-05, x2 = 0.0001802 | 0.0078
313.15 K, x1 = 1.262e-05, x2 = 1.802e-05 | 0.006
313.15 K, x1 = 1.262e-05, x2 = 9.009e-05 | 0.0084
313.15 K, x1 = 1.263e-05, x2 = 0.0001802 | 0.0085
313.15 K, x1 = 1.442e-05, x2 = 1.802e-05 | 0.0065
313.15 K, x1 = 1.442e-05, x2 = 9.009e-05 | 0.0091
313.15 K, x1 = 1.443e-05, x2 = 0.0001802 | 0.0094
313.15 K, x1 = 1.622e-05, x2 = 1.802e-05 | 0.0069
313.15 K, x1 = 1.802e-05, x2 = 1.802e-05 | 0.0075
313.15 K, x1 = 1.982e-05, x2 = 1.802e-05 | 0.0078
313.15 K, x1 = 2.163e-05, x2 = 1.802e-05 | 0.0081
313.15 K, x1 = 2.343e-05, x2 = 1.802e-05 | 0.0082
313.15 K, x1 = 2.523e-05, x2 = 1.802e-05 | 0.0084
313.15 K, x1 = 2.703e-05, x2 = 1.802e-05 | 0.0086
313.15 K, x1 = 2.883e-05, x2 = 1.802e-05 | 0.0089
313.15 K, x1 = 3.064e-05, x2 = 1.802e-05 | 0.009
313.15 K, x1 = 3.244e-05, x2 = 1.802e-05 | 0.0093
313.15 K, x1 = 3.424e-05, x2 = 1.802e-05 | 0.0095
313.15 K, x1 = 3.604e-05, x2 = 1.802e-05 | 0.0097

CCCCCCCCCCCCCCCC[n+]1ccccc1.[Br-] + NCC(=O)NCC(=O)O + O
electrical conductivity [S/m]
Conditions | x1 = 8.993e-05, x2 = 0.001802 | x1 = 8.996e-05, x2 = 0.001442 | x1 = 8.999e-05, x2 = 0.001082 | x1 = 9.003e-05, x2 = 0.0007216 | x1 = 9.006e-05, x2 = 0.0003609 | x1 = 9.009e-05, x2 = 0
298.15 K | 0.023 | 0.022 | 0.021 | 0.02 | 0.019 | 0.021
303.15 K | 0.024 | 0.023 | 0.022 | 0.021 | 0.02 | 0.021
308.15 K | 0.025 | 0.024 | 0.023 | 0.022 | 0.021 | 0.022
313.15 K | 0.026 | 0.025 | 0.024 | 0.023 | 0.022 | 0.024

CCCCCCCCCCCCCCCC[n+]1ccccc1.[Cl-] + NCC(=O)NCC(=O)O + O
electrical conductivity [S/m]
Conditions | x1 = 8.993e-05, x2 = 0.001802 | x1 = 8.996e-05, x2 = 0.001442 | x1 = 8.999e-05, x2 = 0.001082 | x1 = 9.003e-05, x2 = 0.0007214 | x1 = 9.006e-05, x2 = 0.0003609 | x1 = 9.009e-05, x2 = 0
298.15 K | 0.024 | 0.023 | 0.022 | 0.021 | 0.02 | 0.02
303.15 K | 0.025 | 0.024 | 0.023 | 0.022 | 0.021 | 0.021
308.15 K | 0.027 | 0.026 | 0.024 | 0.023 | 0.022 | 0.021
313.15 K | 0.028 | 0.027 | 0.025 | 0.024 | 0.023 | 0.023
